Blank lines part the entries; values can stand above or below the compound they belong to.
Tests used:
[1] = target: T1, TPM3-TRKA fusion protein (Homo sapiens, UniProt P04629); assay: TPM3-TRKA fusion protein levels in KM12 cells (Western blot); type: cell-based; settings: for percent degradation of TPM3-TRKA protein at 0.01 µM: 16 h, TPM3-TRKA degradation in KM12 cells at 10 nM compound, category of percentage degradation, read-out: Degradation (at 10 nM); for TRKA protein levels: dose range (FIG. 8)
T1 construct: The resulted chimeric proteins always retain the kinase domain of TRK proteins; TPM3 (fusion partner, N-terminal part of tropomyosin alpha-3, P06753); endogenous in cells; host or cells: KM12 colon cancer cells; the other entry of the earlier key: TPM3 (P06753, Tropomyosin alpha-3 chain)
How it was run: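 TPM3-TRKA levels were assessed by Western blot with chemiluminescent detection and band densitometry, after SDS-PAGE of BCA-normalized RIPA lysates. Before lysis, KM12 cells received DMSO, compounds or matched control compounds at concentrations including 0.1, 1, 10 and 100 nM and 0.4–30 nM. Exposures lasted 4 h, 8–16 h or 16 h.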

[2] = target: T2, wildtype TRKA protein (Homo sapiens, UniProt P04629); assay: Wildtype TRKA protein levels in HEL erythroleukemia cells (Western blot); type: cell-based; settings: for TRKA protein levels: dose range (FIG. 8)
T2 construct: wildtype TRKA protein expressed by HEL cells; endogenous in cells; host or cells: HEL erythroleukemia cells
Procedure: KM12 or HEL cells were treated with a dose range of compound TR-123 or TR-123-negative. The latter lost binding to cereblon (CRBN) due to a chemical modification.
KM12 or HEL cells were treated with a single dose of compound TR-123 or combination with MG-132, Bortezomib, MLN4924 or Pomalidomide.
HEL cells were treated with heterobifunctional compounds at 10 nM or 100 nM for 16 hours.
KM12, H358, HEL, SU-DHL-1 and other cells were cultured at 37° C. with 5% CO2 in RPMI 1640 Medium supplemented with 10% fetal bovine serum. Cells were authenticated using the short tandem repeat (STR) assays. Mycoplasma test results were negative. Stable cell lines were established by lentivirus transduction, selected and maintained in medium containing 1 μg/mL puromycin (Beyotime Biotechnology).
Cultured cells were washed with cold PBS once and lysed in cold RIPA buffer supplemented with protease inhibitors and phosphatase inhibitors (Beyotime Biotechnology). The solutions were then incubated at 4° C. for 30 minutes with gentle agitation to fully lyse cells. For tumor tissues, tumors were cut into small pieces, milled with cold RIPA buffer using a mechanical homogenizer and lysed for 1 hour at 4° C. Cell lysates were centrifuged at 13,000 rpm for 10 minutes at 4° C. and pellets were discarded. Total protein concentrations in the lysates were determined by BCA assays (Beyotime Biotechnology). Cell lysates were mixed with Laemmli loading buffer to 1× and heated at 99° C. for 5 min. Proteins were resolved on SDS-PAGE and visualized by chemiluminescence. Images were taken by a ChemiDoc MP Imaging system (Bio-Rad). Protein bands were quantitated using the software provided by Bio-Rad.

[3] = Mouse pharmacokinetic (PK) studies, plasma concentrations; type: in vivo, mice; settings: for bioavailability: mouse, plasma, oral, male ICR mice, single dose 10 mg/kg orally or 1 mg/kg intravenously (FIG. 23A)
Procedure: A single […] intraperitoneal injection of compound TR-123 was evaluated. Plasma concentrations of TR-123 reported at each of the 6 time points (30 min, 1 h, […], 4 h, 8 h, and 12 h post compound administration) are the average values from 3 test animals.
A single 2 mg/kg intravenous injection and 20 mg/kg oral gavage of TR-198 were evaluated in mice. Plasma concentrations of TR-198 reported at each of the 6 time points (5 min, 30 min, 2 h, 4 h, 8 h, and 12 h post compound administration via IV, 30 min, 1 h, 2 h, 4 h, 8 h, and 12 h post compound administration via p.o.) are the average values from 3 test animals.
Plasma concentrations of TR-231 and TR-275 were determined following a single dose of 10 mg/kg orally or 1 mg/kg intravenously in male ICR mice (FIG. 23A). Plasma concentrations of TR-231 or TR-275 are examined at indicated different time points post compound administration. The reported values are the average values from 3 test animals.
Standard PK studies were conducted using male Swiss Albino mice by Sai Life Sciences or using male ICR mice by Cullgen. Plasma exposures of TR-123 (10 mg/kg, intraperitoneal injection), TR-198 (20 mg/kg, oral gavage, or 2 mg/kg, intravenous injection), TR-231 and TR-275 (10 mg/kg, oral gavage, or 1 mg/kg, intravenous injection) were determined. Plasma concentrations were reported at indicated time points as the average values derived from three experimental animals. Error bars represent standard deviations.

[4] = system: KM12 subcutaneous xenograft tumors; assay: KM12 subcutaneous xenograft tumor growth; type: in vivo, Athymic nude mice; settings: 10-20 mg/kg qd or bid via oral gavage (FIG. 15A-15B)
Procedure: Athymic nude mice bearing KM12 subcutaneous xenograft tumors at the right flank were intraperitoneally treated with vehicle or 25 mg/kg CPD-060 once per day (qd), twice per day (bid), or once every two days (q2d). Tumor volumes were assessed every two days and expressed as length×width×width/2. Body weights of experimental mice were also measured to assess the toxicity of compounds.
Athymic nude mice bearing KM12 subcutaneous xenograft tumors at the right flank were treated with vehicle, 10-20 mg/kg TR-181 or TR-198 once per day (qd), or twice per day (bid) via oral gavage. Tumor volumes were assessed every two days and expressed as length×width×width/2. Body weights of experimental mice were also measured to assess the toxicity of compounds.
Mice bearing KM12 xenograft tumors were treated with vehicle, TR-231 or TR-275 orally at 40 mg/kg, twice per day for 14 days. Tumor sizes were measured every two days and presented as volume=(length×width×width)/2. […]
All animal experiments were performed under protocols approved by the Institutional Animal Care and Use Committee (IACUC) of Cullgen. […] Tumor volumes were calculated as […]. For tumor growth assays, tumor sizes and body weight of mice were measured every 2 days. For pharmacodynamic studies, the levels of TPM3-TPKA in xenograft tumors was determined following a single dose of drug administration. […]

[5] = system: KM12 cells; assay: KM12 cell viability (CellTiter-Glo); type: cell-based; settings: Homo sapiens, 72 h; KM12 cell viability, CellTiter-Glo, three days treatment; read-out: IC50
How it was run: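 Three-day exposure of KM12 cells (5000/well, RPMI 1640 with 10% FBS, 37 °C, 5% CO2) to compound dilution series, 3-fold over 8 or 11 points (top 1000 nM in the 8-point format) or 2-fold over 12. CellTiter-Glo readout, with IC50 fitted by nonlinear least-squares regression.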

[6] = system: TRK-fusions; settings: phase 2 results, cited from earlier work

T2 sequence (P04629 33-796): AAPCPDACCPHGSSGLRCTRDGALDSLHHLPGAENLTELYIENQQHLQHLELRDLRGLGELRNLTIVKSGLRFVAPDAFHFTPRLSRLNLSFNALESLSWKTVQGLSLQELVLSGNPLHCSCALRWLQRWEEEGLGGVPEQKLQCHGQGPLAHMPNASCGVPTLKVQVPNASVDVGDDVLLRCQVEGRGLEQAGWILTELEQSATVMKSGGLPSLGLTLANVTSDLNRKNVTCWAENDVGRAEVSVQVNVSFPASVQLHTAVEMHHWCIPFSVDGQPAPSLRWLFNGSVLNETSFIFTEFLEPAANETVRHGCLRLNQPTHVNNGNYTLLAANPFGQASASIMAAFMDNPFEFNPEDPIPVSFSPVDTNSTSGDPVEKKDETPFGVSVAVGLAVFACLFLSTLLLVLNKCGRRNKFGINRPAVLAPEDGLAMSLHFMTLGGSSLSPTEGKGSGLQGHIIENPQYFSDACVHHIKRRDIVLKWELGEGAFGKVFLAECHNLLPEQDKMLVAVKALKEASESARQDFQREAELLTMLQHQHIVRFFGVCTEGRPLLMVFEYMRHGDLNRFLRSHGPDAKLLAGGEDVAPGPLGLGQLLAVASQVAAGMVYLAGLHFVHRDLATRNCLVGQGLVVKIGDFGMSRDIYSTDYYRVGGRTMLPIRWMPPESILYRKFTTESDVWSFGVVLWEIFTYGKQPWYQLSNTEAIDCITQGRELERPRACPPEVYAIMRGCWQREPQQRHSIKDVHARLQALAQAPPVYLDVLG
T1 sequence (P04629 with tags, fused parts or gaps): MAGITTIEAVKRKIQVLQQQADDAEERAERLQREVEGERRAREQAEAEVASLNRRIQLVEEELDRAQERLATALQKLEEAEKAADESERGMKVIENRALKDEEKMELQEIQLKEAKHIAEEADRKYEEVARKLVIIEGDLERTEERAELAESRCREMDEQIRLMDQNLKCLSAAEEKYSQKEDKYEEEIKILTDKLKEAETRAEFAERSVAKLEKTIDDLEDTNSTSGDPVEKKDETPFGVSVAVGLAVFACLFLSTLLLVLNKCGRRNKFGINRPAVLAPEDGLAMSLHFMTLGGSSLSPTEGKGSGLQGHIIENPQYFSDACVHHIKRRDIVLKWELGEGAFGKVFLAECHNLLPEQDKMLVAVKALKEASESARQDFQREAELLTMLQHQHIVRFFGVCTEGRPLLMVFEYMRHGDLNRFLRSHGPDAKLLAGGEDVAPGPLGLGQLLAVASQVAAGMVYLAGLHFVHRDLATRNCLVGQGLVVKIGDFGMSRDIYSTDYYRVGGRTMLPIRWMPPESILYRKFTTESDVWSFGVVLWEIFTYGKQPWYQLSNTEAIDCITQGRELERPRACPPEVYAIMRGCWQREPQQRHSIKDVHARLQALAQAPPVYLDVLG

Compound: O=C1CCC(N2C(=O)c3ccc(NCC(=O)N4CCN(c5cccc(-c6cnc7ccc(N8CCC[C@@H]8c8cccc(F)c8)nn67)n5)CC4)cc3C2=O)C(=O)N1 (stereo partly drawn) [TR-123, 2-(2,6-dioxopiperidin-3-yl)-5-((2-(4-(6-(6-((R)-2-(3-fluorophenyl)pyrrolidin-1-yl)imidazo[1,2-b]pyridazin-3-yl)pyridin-2-yl)piperazin-1-yl)-2-oxoethyl)amino) isoindoline-1,3-dione]
- percent degradation of TPM3-TRKA protein at 0.01 µM [1]: > 80%
- TRKA protein levels ([1]; KM12 cells): reduced TRKA protein levels in a concentration-dependent manner
- TRKA degradation in combination with MG-132, Bortezomib, MLN4924 or Pomalidomide ([1]; KM12 cells, single dose (FIG. 9)): compromised
- TRKA protein levels [2]: reduced TRKA protein levels in a concentration-dependent manner
- TRKA degradation in combination with MG-132, Bortezomib, MLN4924 or Pomalidomide ([2]; single dose (FIG. 9)): compromised
- plasma exposure ([3]; single 20 mg/kg intraperitoneal injection, over 12 hours, average of 3 animals (FIG. 11)): good plasma exposure

Compound: CN1C(=O)CCC(N2C(=O)c3ccc(NCC(=O)N4CCN(c5cccc(-c6cnc7ccc(N8CCC[C@@H]8c8cccc(F)c8)nn67)n5)CC4)cc3C2=O)C1=O (stereo partly drawn) [TR-123-negative, 5-((2-(4-(6-(6-((R)-2-(3-fluorophenyl)pyrrolidin-1-yl)imidazo[1,2-b]pyridazin-3-yl)pyridin-2-yl)piperazin-1-yl)-2-oxoethyl)amino)-2-(1-methyl-2,6-dioxopiperidin-3-yl)isoindoline-1,3-dione]
- TRKA protein levels ([1]; KM12 cells): had none or less effects on TRKA protein levels
- TRKA protein levels [2]: had none or less effects on TRKA protein levels

Compound: O=C1CCC(N2C(=O)c3ccc(NCCN4CCN(c5cccc(-c6cnc7ccc(N8CCC[C@@H]8c8cccc(F)c8)nn67)n5)CC4)cc3C2=O)C(=O)N1 (stereo partly drawn) [TR-181, 2-(2,6-dioxopiperidin-3-yl)-5-((2-(4-(6-(6-((R)-2˜ (3-fluorophenyl)pyrrolidin-1-yl)imidazo[1,2-b]pyridazin-3-yl)pyridin-2-yl)piperazin-1-yl)ethyl)amino) isoindoline-1,3-dione]
- percent degradation of TPM3-TRKA protein at 0.01 µM [1]: > 80%
- in vivo anti-tumor activity (tumor volume) [4]: significant in vivo anti-tumor activity
- IC50 [5]: 2.9 nM

Compound: O=C(Nc1cnn2ccc(N3CCC[C@@H]3c3cc(F)ccc3F)nc12)N1CC[C@H](O)C1 [larotrectinib]
- patient remained progression-free at 1 year ([6]; at 1 year): 55%
- patients responded to the therapy ([6]; patients with TRK-fusions): 75%

Now from value to compound, other results behind:

- percent degradation of TPM3-TRKA protein at 0.01 µM [1]: > 80%
Compound: O=C1CCC(N2C(=O)c3ccc(N4CC(CN5CCN(c6cccc(-c7cnc8ccc(N9CCC[C@@H]9c9cccc(F)c9)nn78)n6)CC5)C4)cc3C2=O)C(=O)N1 (stereo partly drawn) [TR-198, 2-(2,6-dioxopiperidin-3-yl)-5-(3-((4-(6-(6-((R)-2-(3-fluorophenyl)pyrrolidin-1-yl)imidazo[1,2-b]pyridazin-3-yl)pyridin-2-yl)piperazin-1-yl)methyl)azetidin-1-yl)isoindoline-1,3-dione]
- in vivo anti-tumor activity (tumor volume) [4]: significant in vivo anti-tumor activity

- percent degradation of TPM3-TRKA protein at 0.01 µM [1]: > 80%
- bioavailability [3]: ~48%
Compound: O=C1CCC(N2C(=O)c3ccc(N4CC(CN5CCN(c6ccc(C(=O)Nc7n[nH]c8ccc(Cc9cc(F)cc(F)c9)cc78)c(NC7CCOCC7)c6)CC5)C4)cc3C2=O)C(=O)N1 (stereo not drawn) [TR-231]
- IC50 [5]: 3 nM

- percent degradation of TPM3-TRKA protein at 0.01 µM [1]: 50 to 80%
- bioavailability [3]: ~27%
Compound: O=C1CCC(N2C(=O)c3ccc(N4CC(N5CCN(c6ccc(C(=O)Nc7n[nH]c8ccc(Cc9cc(F)cc(F)c9)cc78)c(NC7CCOCC7)c6)CC5)C4)cc3C2=O)C(=O)N1 (stereo not drawn) [TR-275, N-(5-(3,5-difluorobenzyl)-1H-indazol-3-yl)-4-(4-(1-(2-(2,6-dioxopiperidin-3-yl)-1,3-dioxoisoindolin-5-yl)azetidin-3-yl)piperazin-1-yl)-2-((tetrahydro-2H-pyran-4-yl)amino)benzamide]
- IC50 [5]: 8.9 nM

Reference: US12410171B2, “Tropomyosin receptor kinase (TRK) degradation compounds and methods of use” (Cullgen (Shanghai), Inc., priority 2020, dated 2025)
